According to ChEMBL document CHEMBL1125121, “Synthesis and activity of a potent N-methyl-D-aspartic acid agonist, trans-1-aminocyclobutane-1,3-dicarboxylic acid, and related phosphonic and carboxylic acids” (J Med Chem, 1990):
Calls of active or inactive are those of the source. The rule behind the calls is not given here.

Legend:
Type in all cases: functional
[1] = target: T1, Glutamate NMDA receptor (Rattus norvegicus) (UniProt P35439+Q00959+Q00960+Q00961+Q62645+Q8VHN2+Q9R1M7); assay: Antagonistic activity against 10 uM of N-methyl-D-aspartate glutamate receptor at the concentration of 200 uM; set-up: scale not given: the % may be the effect or the level left
[2] = target: T2, Glutamate receptor ionotropic, kainate (Rattus norvegicus) (UniProt P22756+Q01812+P42260+P42264+Q63273); assay: Antagonistic activity against Ionotropic glutamate receptor kainate at the concentration of 200 uM; set-up: scale not given: the % may be the effect or the level left
[3] = target: T1, Glutamate NMDA receptor (Rattus norvegicus); assay: Depression of depolarizing response vs 10 uM N-methyl-D-aspartate glutamate receptor at the concentration of 500 uM; inactive
[4] = target: T3, Glutamate receptor ionotropic, AMPA (Rattus norvegicus) (UniProt P19491+P19492+P19493+P19490); assay: Antagonistic activity against 5 uM of quis/AMPA at the concentration of 200 uM; set-up: scale not given: the % may be the effect or the level left
[5] = target: T1, Glutamate NMDA receptor (Rattus norvegicus); assay: Depression of depolarizing response vs 10 uM N-methyl-D-aspartate glutamate receptor at the concentration of 200 uM; inactive
[6] = target: T2, Glutamate receptor ionotropic, kainate (Rattus norvegicus); assay: Antagonistic activity against Ionotropic glutamate receptor kainate at the concentration of 200 uM; ns = not significant
[7] = target: T3, Glutamate receptor ionotropic, AMPA (Rattus norvegicus); assay: Antagonistic activity against 5 uM of quis/AMPA at the concentration of 200 uM; ns = not significant
[8] = target: T2, Glutamate receptor ionotropic, kainate (Rattus norvegicus); assay: Antagonistic activity against Ionotropic glutamate receptor kainate at the concentration of 100 uM; set-up: scale not given: the % may be the effect or the level left
[9] = target: T1, Glutamate NMDA receptor (Rattus norvegicus); assay: Antagonistic activity against 10 uM of N-methyl-D-aspartate glutamate receptor at the concentration of 100 uM; set-up: scale not given: the % may be the effect or the level left
[10] = target: T3, Glutamate receptor ionotropic, AMPA (Rattus norvegicus); assay: Antagonistic activity against 5 uM of quis/AMPA at the concentration of 100 uM; set-up: scale not given: the % may be the effect or the level left
[11] = target: T1, Glutamate NMDA receptor (Rattus norvegicus); assay: Antagonistic activity against 10 uM of N-methyl-D-aspartate glutamate receptor at the concentration of 500 uM; set-up: scale not given: the % may be the effect or the level left
[12] = target: T3, Glutamate receptor ionotropic, AMPA (Rattus norvegicus); assay: Antagonistic activity against 5 uM of quis/AMPA at the concentration of 500 uM; ns = not significant
[13] = target: T2, Glutamate receptor ionotropic, kainate (Rattus norvegicus); assay: Antagonistic activity against Ionotropic glutamate receptor kainate at the concentration of 500 uM; ns = not significant
[14] = target: T1, Glutamate NMDA receptor (Rattus norvegicus); assay: Depression of depolarizing response vs 10 uM N-methyl-D-aspartate glutamate receptor at the concentration of 500 uM
[15] = target: T1, Glutamate NMDA receptor (Rattus norvegicus); assay: Antagonistic activity against 10 uM of N-methyl-D-aspartate glutamate receptor at the concentration of 500 uM; ns = not significant

| SMILES | Activity [1] [%] | Activity [3] | Activity [12] | Activity [13] | Activity [14] | further results |
| --- | --- | --- | --- | --- | --- | --- |
| N[C@]1(C(=O)O)C[C@@H](CP(=O)(O)O)C1.N[C@]1(C(=O)O)C[C@H](CP(=O)(O)O)C1 | 40 | inactive |  |  |  | Activity [2]: 25%; Activity [4]: 25% |
| N[C@]1(C(=O)O)C[C@@H](CP(=O)(O)O)C1 | 40 |  |  |  |  | Activity [5]: inactive; Activity [6]: inactive; Activity [7]: inactive |
| NC1(C(=O)O)CC(=CP(=O)(O)O)C1 (configuration not stated) |  | inactive |  |  |  | Activity [8]: 25%; Activity [9]: 40%; Activity [10]: 30% |
| N[C@]1(C(=O)O)C[C@@H](CCCP(=O)(O)O)C1.N[C@]1(C(=O)O)C[C@H](CCCP(=O)(O)O)C1 |  | inactive | inactive | inactive |  | Activity [11]: 50% |
| N[C@]1(C(=O)O)C[C@@H](CC(=O)O)C1 | 50 |  |  |  | 0.25 |  |
| N[C@]1(C(=O)O)C[C@H](CC(=O)O)C1 |  |  | inactive | inactive | 0.65 | Activity [15]: inactive |
